Experimental data: PubChem BioAssay AID330 (DTP/NCI, 2004)
Several values for one entry are separate records, joined by “and”; a condition that tells them apart may be missing. Equal entries are not always repeated. Toxic doses and inconclusive results are not listed.

Tested on: P388 leukemia ip, CD2F1 mice, survival T/C
Experiment: NCI In Vivo Anticancer Drug Screen. Data for tumor model P388 Leukemia (intraperitoneal) in CD2F1 (CDF1) mice
Settings: endpoint: median survival time, higher = longer survival
Summary of the method: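 Mice carrying the transplanted tumor received test compound or vehicle. Survival was recorded in each group, and the value is the treated-group measurement divided by that of the vehicle-treated control group.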

[1] = dose: 50.0 mg/kg/injection, schedule: Q01DX009 (ip), vehicle: saline
[2] = dose: 50.0 mg/kg/injection, schedule: Q01DX009 (ip), vehicle: saline with Tween-80
[3] = dose: 50.0 mg/kg/injection, schedule: Q01DX005 (ip), vehicle: Klucel (hydroxypropylcellulose) (HPC)
[4] = dose: 100.0 mg/kg/injection, schedule: Q01DX005 (ip), vehicle: Klucel (hydroxypropylcellulose) (HPC)
[5] = dose: 200.0 mg/kg/injection, schedule: Q01DX005 (ip), vehicle: Klucel (hydroxypropylcellulose) (HPC)

## CC1(C)CC2(CC3(C1)S(=O)(=O)CCS3(=O)=O)S(=O)(=O)CCS2(=O)=O
dose: 6.25 mg/kg/injection, schedule: Q01DX009 (ip), vehicle: saline
  T/C: 103 % of control
dose: 12.5 mg/kg/injection, schedule: Q01DX009 (ip), vehicle: saline
  T/C: 100 % of control
dose: 25.0 mg/kg/injection, schedule: Q01DX009 (ip), vehicle: saline
  T/C: 116 % of control
[1]
  T/C: 100 % of control

## [Cu+2].[O-]/C(=N\N=C/c1ccco1)c1ccccc1O.[O-]/C(=N\N=C/c1ccco1)c1ccccc1O.[OH3+].[OH3+]
dose: 400.0 mg/kg/injection, schedule: Q04DX002 (ip), vehicle: saline with Tween-80
  T/C: 93 % of control

## C=C1CC2(CCCCC2c2ccccc2)OC1=O (stereo not drawn)
dose: 100.0 mg/kg/injection, schedule: Q04DX002 (ip), vehicle: Klucel (hydroxypropylcellulose) (HPC)
  T/C: 97 % of control
dose: 200.0 mg/kg/injection, schedule: Q04DX002 (ip), vehicle: Klucel (hydroxypropylcellulose) (HPC)
  T/C: 103 % of control
dose: 400.0 mg/kg/injection, schedule: Q04DX002 (ip), vehicle: Klucel (hydroxypropylcellulose) (HPC)
  T/C: 103 % of control

## O=c1[nH]c2cc(Cl)ccc2nc1/C=C(\O)c1ccc(N2CCN(c3ccc(/C(O)=C/c4nc5ccc(Cl)cc5[nH]c4=O)cc3)CC2)cc1
dose: 60.0 mg/kg/injection, schedule: Q01DX005 (ip), vehicle: Klucel + Tween-80
  T/C: 98 % of control
dose: 120.0 mg/kg/injection, schedule: Q01DX005 (ip), vehicle: Klucel + Tween-80
  T/C: 93 % of control
dose: 240.0 mg/kg/injection, schedule: Q01DX005 (ip), vehicle: Klucel + Tween-80
  T/C: 86 % of control

## OCCN(CCO)c1nc(N(CCO)CCO)c(N2CCCCC2)c(N2CCCCC2)n1
dose: 100.0 mg/kg/injection, schedule: Q04DX002 (ip), vehicle: saline
  T/C: 104 % of control
dose: 200.0 mg/kg/injection, schedule: Q04DX002 (ip), vehicle: saline
  T/C: 105 % of control
dose: 400.0 mg/kg/injection, schedule: Q04DX002 (ip), vehicle: saline
  T/C: 98 % of control

## O=C(Nc1ccc(Br)cc1)Oc1ccc(Cl)cc1C(=O)c1ccccc1
dose: 60.0 mg/kg/injection, schedule: Q01DX005 (ip), vehicle: Klucel (hydroxypropylcellulose) (HPC)
  T/C: 105 % of control
dose: 120.0 mg/kg/injection, schedule: Q01DX005 (ip), vehicle: Klucel (hydroxypropylcellulose) (HPC)
  T/C: 105 % of control
dose: 240.0 mg/kg/injection, schedule: Q01DX005 (ip), vehicle: Klucel (hydroxypropylcellulose) (HPC)
  T/C: 108 % of control

## O=C(NS(=O)(=O)c1ccc(Cl)cc1)c1ccccc1
dose: 12.5 mg/kg/injection, schedule: Q01DX009 (ip), vehicle: saline with Tween-80
  T/C: 102 % of control and 91 % of control
dose: 25.0 mg/kg/injection, schedule: Q01DX009 (ip), vehicle: saline with Tween-80
  T/C: 106 % of control
[2]
  T/C: 100 % of control and 94 % of control

## CCOC(=O)CCC(NC(=O)N(CCCl)CCCl)C(=O)OCC (stereo not drawn)
[2]
  T/C: 154 % of control
dose: 100.0 mg/kg/injection, schedule: Q01DX009 (ip), vehicle: saline with Tween-80
  T/C: 168 % of control
dose: 100.0 mg/kg/injection, schedule: Q04DX003 (ip), vehicle: saline with Tween-80
  T/C: 113 % of control
dose: 132.0 mg/kg/injection, schedule: Q04DX003 (ip), vehicle: saline with Tween-80
  T/C: 168 % of control
dose: 200.0 mg/kg/injection, schedule: Q01DX009 (ip), vehicle: saline with Tween-80
  T/C: 181 % of control
dose: 200.0 mg/kg/injection, schedule: Q04DX003 (ip), vehicle: saline with Tween-80
  T/C: 150 % of control and 172 % of control
dose: 300.0 mg/kg/injection, schedule: Q04DX003 (ip), vehicle: saline with Tween-80
  T/C: 195 % of control

## NC(CCCCNC(=S)S)C(=O)O.[Zn+2] (stereo not drawn)
[3]
  T/C: 107 % of control
[4]
  T/C: 107 % of control
[5]
  T/C: 107 % of control

## Oc1cccnc1CN1CCOCC1
[1]
  T/C: 101 % of control
dose: 100.0 mg/kg/injection, schedule: Q01DX009 (ip), vehicle: saline
  T/C: 93 % of control
dose: 200.0 mg/kg/injection, schedule: Q01DX009 (ip), vehicle: saline
  T/C: 101 % of control
dose: 400.0 mg/kg/injection, schedule: Q01DX009 (ip), vehicle: saline
  T/C: 101 % of control

## Cn1ccc2c1CC(=O)NC2=O
dose: 3.12 mg/kg/injection, schedule: Q04DX003 (ip), vehicle: Klucel (hydroxypropylcellulose) (HPC)
  T/C: 100 % of control
dose: 6.25 mg/kg/injection, schedule: Q04DX003 (ip), vehicle: Klucel (hydroxypropylcellulose) (HPC)
  T/C: 108 % of control
dose: 12.5 mg/kg/injection, schedule: Q04DX003 (ip), vehicle: Klucel (hydroxypropylcellulose) (HPC)
  T/C: 114 % of control
dose: 100.0 mg/kg/injection, schedule: Q04DX003 (ip), vehicle: Klucel (hydroxypropylcellulose) (HPC)
  T/C: 106 % of control

## COc1ccc2nc(C)c(C)nc2c1Cl
[3]
  T/C: 98 % of control
[4]
  T/C: 100 % of control
[5]
  T/C: 95 % of control

## CC1(C)OC(COCCO)C(COCCO)O1 (stereo not drawn)
dose: 100.0 mg/kg/injection, schedule: Q01DX001 (ip), vehicle: saline
  T/C: 92 % of control
dose: 200.0 mg/kg/injection, schedule: Q01DX001 (ip), vehicle: saline
  T/C: 91 % of control
dose: 400.0 mg/kg/injection, schedule: Q01DX001 (ip), vehicle: saline
  T/C: 92 % of control

## O=C1C=CC2C3C(=O)N(c4ccccc4)C(=O)C3C1N2Cc1ccccc1 (stereo not drawn)
dose: 50.0 mg/kg/injection, schedule: Q01DX005 (ip), vehicle: saline with Tween-80
  T/C: 105 % of control and 110 % of control and 118 % of control
dose: 100.0 mg/kg/injection, schedule: Q01DX005 (ip), vehicle: saline with Tween-80
  T/C: 116 % of control and 117 % of control and 118 % of control
dose: 200.0 mg/kg/injection, schedule: Q01DX005 (ip), vehicle: saline with Tween-80
  T/C: 119 % of control and 120 % of control and 123 % of control
dose: 400.0 mg/kg/injection, schedule: Q01DX005 (ip), vehicle: saline with Tween-80
  T/C: 113 % of control and 114 % of control
